From publication PMC2193345 (The Journal of Experimental Medicine, 2001) come the findings set out here.

Common to all, as to format: cell-based
Assay [1] deals with T1, DP (Homo sapiens, UniProt Q13258).
T1 sequence (Q13258 1-359): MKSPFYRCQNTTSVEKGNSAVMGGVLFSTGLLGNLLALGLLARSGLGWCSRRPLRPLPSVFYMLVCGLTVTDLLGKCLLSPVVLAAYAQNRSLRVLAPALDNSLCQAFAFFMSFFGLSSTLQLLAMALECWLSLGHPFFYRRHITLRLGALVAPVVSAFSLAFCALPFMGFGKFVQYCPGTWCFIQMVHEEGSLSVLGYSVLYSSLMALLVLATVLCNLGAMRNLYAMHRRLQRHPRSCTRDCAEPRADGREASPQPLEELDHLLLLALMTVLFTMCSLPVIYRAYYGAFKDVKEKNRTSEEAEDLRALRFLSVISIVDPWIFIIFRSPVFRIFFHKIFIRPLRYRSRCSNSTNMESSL
In words: 3H-PGD2 competition binding, K562/DP cells.

Assay [2] addresses T2, CRTH2 (Homo sapiens, UniProt Q9Y5Y4).
T2 sequence (Q9Y5Y4 1-395): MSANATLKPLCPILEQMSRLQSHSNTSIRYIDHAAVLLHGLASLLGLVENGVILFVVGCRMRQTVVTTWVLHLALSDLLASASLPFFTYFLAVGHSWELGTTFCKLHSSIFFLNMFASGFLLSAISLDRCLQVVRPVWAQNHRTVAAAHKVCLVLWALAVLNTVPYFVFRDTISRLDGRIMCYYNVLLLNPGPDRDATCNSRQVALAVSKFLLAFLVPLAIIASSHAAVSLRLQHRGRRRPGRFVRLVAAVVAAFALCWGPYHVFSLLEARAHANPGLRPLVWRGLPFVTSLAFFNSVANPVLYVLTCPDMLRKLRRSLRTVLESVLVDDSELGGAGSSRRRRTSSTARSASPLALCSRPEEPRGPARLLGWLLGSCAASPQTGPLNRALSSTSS
In words: 3H-PGD2 competition binding, K562/CRTH2 cells.

Assay [3] concerns the target T1, DP. Nature of the assay: 3H-PGD2 saturation binding.
In assay [4] the target is T2, CRTH2. In words: 3H-PGD2 saturation binding.

On to `CCCCC[C@H](O)/C=C/[C@@H]1[C@@H](C/C=C\CCCC(=O)O)[C@@H](O)C[C@@H]1O` [11β-PGF2α], for which the Ki on DP [1] was 1200 nM; at CRTH2 [2] it was 20000 nM.
`CCCCC[C@H](O)/C=C/[C@H]1[C@H](O)CC(=O)[C@@H]1C/C=C\CCCC(=O)O` [PGE2]: the Ki is 2300 nM at DP [1] and 3100 nM at CRTH2 [2].
Consider `CCCCC[C@H](O)/C=C/[C@@H]1[C@@H](C/C=C\CCCC(=O)O)[C@@H](O)C[C@H]1O` [PGF2α], for which the values for the Ki at DP [1] and at CRTH2 [2] were above 30000 nM and 2000 nM, respectively.
In the case of `CCCCC[C@H](O)/C=C/[C@H]1C(=O)C[C@H](O)[C@@H]1C/C=C\CCCC(=O)OC` [PGD2 methyl ester], the inhibition constant Ki at DP [1] was 270 ± 46 nM; at CRTH2 [2], 460 ± 120 nM.
Taken in the same sequence, the figures for `CCCCC[C@H](O)/C=C/[C@@H]1[C@@H](C/C=C\CCCC(=O)O)[C@H]2CO[C@@H]1C2` [U46619] were above 30000 nM and above 30000 nM.
On the same counts, the results for `CCCCC[C@H](O)/C=C/C=C\C=C\C=C\[C@@H](O)[C@@H](O)CCCC(=O)O` [LXA4] are above 30000 nM and above 30000 nM.
`O=C(O)CCCCCC[C@H]1C(=O)NC(=O)N1CC[C@@H](O)C1CCCCC1` [BW245C]: the Ki at DP [1] was 50 ± 20 nM; at CRTH2 [2], above 100000 nM.
Consider `CCCCC/C=C\C[C@@H](O)/C=C/C=C/C=C\[C@@H](O)CCCC(=O)O` [LTB4], for which the inhibition constant Ki at DP [1] and at CRTH2 [2] was above 30000 nM throughout.
Regarding `CCCCC[C@H](O)/C=C/[C@H]1C(=O)C[C@H](O)[C@@H]1C/C=C\CCCC(=O)O` [PGD2], the Ki on DP [1] amounted to 45 ± 17 nM; at CRTH2 [2], 61 ± 23 nM. For the same molecule, the Kd on DP [3] is 37.7 nM; on CRTH2 [4], 31.3 nM.
For `CCCCC[C@H](O)/C=C/[C@H]1C(=O)C=C[C@@H]1C/C=C\CCCC(=O)O` [PGJ2], the figures for the inhibitory constant (Ki) at DP [1] and at CRTH2 [2] were 64 ± 13 nM and 460 ± 160 nM, respectively.
Taken in the same sequence, the figures for `CCCCC[C@H](O)/C=C/[C@H]1C=CC(=O)[C@@H]1C/C=C\CCCC(=O)O` [PGA2] were above 30000 nM and above 30000 nM.
Consider `CCCCC/C=C/C=C1/C(=O)C=C[C@@H]1C/C=C\CCCC(=O)O` [15-deoxy-Δ^12,14-PGJ2], for which the values for the inhibition constant (Ki) at DP [1] and on CRTH2 [2] were above 30000 nM and 2300 nM, respectively.
With `CCCCCC(=O)CC[C@H]1C(=O)C[C@H](O)[C@@H]1C/C=C\CCCC(=O)O` [DK-PGD2, 13,14-dihydro-15-keto-PGD2], the results for the Ki at DP [1] and on CRTH2 [2] were above 30000 nM and 160 ± 35 nM, respectively.
Take `CCCCC[C@H](O)C/C=C1/C(=O)C=C[C@@H]1C/C=C\CCCC(=O)O` [Δ^12-PGJ2]: the inhibition constant (Ki) at DP [1] was 5200 nM; on CRTH2 [2] it was 7100 nM.

As a reminder, the Ki is the dissociation constant of the complex between target and ligand, obtained from inhibition or displacement. Read a low Ki as higher affinity. The term Kd denotes the concentration at which binding is half-saturated. Read a high Kd as weaker binding.
